Measured values taken from patent publication US8268889B2, “Treatment of ovarian cancer” (Ramot at Tel-Aviv University Ltd., priority 2006, dated 2012).

Columns and labels:
[1] = tested on: OVCAR-3 cells; assay: cells; format: cell-based; settings: Homo sapiens, 50 μM FTS alone, read-out: inhibition of cell growth
Experimental: OVCAR-3 cells were plated at a density of 10×10^4 cells per well in 24-well plates and grown for 3 days in the presence of 50 μM FTS. […] This protocol was chosen in order to induce only a small cytotoxic effect, thus enabling a determination of any possible enhanced effect with the Ras inhibitor. The number of live cells was evaluated 3 days later by MTT, as described earlier.
Thus, the greater than additive effect of these two drugs was manifested in an additional decrease of 35% in cell number, which was accounted for by death of the cells.

[2] = tested on: OVCAR-3 cells; assay: cells; format: cell-based
Experimental: The human epithelial ovarian cell line OVCAR-3 was obtained from the American Tissue Culture Collection. Cells were routinely grown in Roswell Park Memorial Institute 1640 medium containing 10% fetal calf serum, 0.1 mM nonessential amino acids, and 2 mM L-glutamine, at 37° C. in a humidified atmosphere of 95% air/5% CO2. To examine the effect of FTS on the anchorage-dependent cell growth, cells were plated at a density of 10×10^4 cells per well in 24-well plates to which either 0.1% DMSO (control) or the test concentrations of FTS were added after 24 h. […] Cells were stained with 3-(4,5-dimethylthiosol-2-yl)-2,5-diphenyltetrazolium bromide (MTT, Sigma Chemical Co., St. Louis, Mo.), incubated for 90 min, and dissolved in 0.3 mL of 100% DMSO. The extent of staining was determined spectrophotometrically (A570, A630) using an enzyme-linked immunosorbent assay reader. All assays were carried out in quadruplicate samples and were repeated three times.
Anchorage-dependent cell growth was examined in cells that were grown in the presence of FTS.

[3] = tested on: Ras-GTP; assay: Determination of Ras-GTP by GST-RBD pull-down assay and Western immunoblotting; format: cell-based, human; settings: OVCAR-3 cells; for reduction in Ras-GTP: 24 h
Experimental: (§1) OVCAR-3 cells were plated at a density of 1.5×10^6 cells in 10-cm plates and grown for 24 h in the presence of 25 or 50 μM FTS. The cells were lysed in 0.5 mL of the Ras-binding domain of Raf-1 (RBD) lysis buffer [Herrmann, C., Martin, G. A. and Wittinghofer, A., J Biol Chem 270:2901-05 (1995)] containing 0.1 mM orthovanadate. Lysates containing 50 μg protein were used to determine total Ras by Western immunoblotting with pan anti-Ras antibody (Ab) and lysates containing 1500 μg protein to determine Ras-GTP by the glutathione S-transferase RBD pull-down assay followed by Western immunoblotting with pan anti-Ras Ab and enhanced chemiluminescence, as previously described [Fridman, M., Maruta, H. and Gonez, J., J Biol Chem 275:30363-71 (2000)]. Mouse anti β-tubulin Ab (AK-15, Sigma) was used at a dilution of 1:500 to confirm equal protein loading.
(§2) In view of the finding that OVCAR-3 cells expressed significant amounts of Ras and active Ras-GTP (FIGS. 1a and b), Applicants examined whether the Ras antagonist FTS would affect the amounts of Ras and Ras-GTP in these cells in the same way as it affects active Ras in other cell lines [Marom, M., supra.; Elad, G., Paz, A., Haklai, R., Marciano, D., Cox, A., Kloog, Y. Biomed Biochim Acta 8:1452:228-42 (1999); Weisz, B., Giehl, K., Gana-Weisz, M. et al. Oncogene 18:2579-88 (1999)]. The cells were grown for 24 h in serum containing medium with or without 25 or 50 μM FTS. Similar conditions were used in earlier studies with other cell lines [Elad, supra.; Weisz, supra.]. […] Quantitative analysis of the immunoblots disclosed that FTS, at concentrations of 25 and 50 μM, caused significant reductions of 5% and 39%, respectively, in Ras and 19% and 41%, respectively, in Ras-GTP (FIG. 1b).

[4] = tested on: Ras; assay: Determination of total Ras by Western immunoblotting with pan anti-Ras antibody; format: cell-based, human; settings: OVCAR-3 cells; for reduction in Ras: 24 h
Experimental: as §1, §2

[5] = FTS alone, concentration not given

`CC(C)=CCC/C(C)=C/CC/C(C)=C/CSc1ccccc1C(=O)O` [FTS, farnesylthiosalicylic acid] was tested, and the inhibition at 50 µM [1] was 45%, the IC50 ([2]; Homo sapiens, OVCAR-3, read-out: IC50 (concentration causing 50% inhibition of cell growth)) was 54 µM and the “foci formation and growth” value ([2]; OVCAR-3 cultures, 7 days with 25 or 50 μM FTS) was “strongly inhibited”. The “reduction in Ras-GTP” value ([3]; 25 μM FTS) was 19%, the “reduction in Ras-GTP” value ([3]; 50 μM FTS) was 41% and the “Ras-GTP reduced (summary statement)” value [3, 5] was 40%. For the same compound, the “reduction in Ras” value ([4]; 25 μM FTS) was 5%, the “reduction in Ras” value ([4]; 50 μM FTS) was 39% and the “Ras reduced (summary statement)” value [4, 5] was 40%.
